Data from BigSolDB 2.1.

c1ccc2ccccc2c1
Conditions | solubility (mole fraction)
in acetone, 297.17 K | 0.211
in acetone, 298.11 K | 0.218
in acetone, 300.23 K | 0.233
in acetone, 301.55 K | 0.246
in acetone, 303.47 K | 0.259
in acetone, 305.14 K | 0.272
in acetone, 306.63 K | 0.285
in acetone, 307.76 K | 0.297
in acetone, 309.37 K | 0.31
in acetone, 311.03 K | 0.323
in acetone, 312.03 K | 0.335
in acetone, 312.97 K | 0.347
in acetone, 314.37 K | 0.361
in acetone, 315.74 K | 0.376
in acetone, 317.26 K | 0.394
in acetone, 319.06 K | 0.415
in acetone, 320.87 K | 0.44
in acetone, 322.7 K | 0.459
in ethanol, 304.26 K | 0.0464
in ethanol, 307.44 K | 0.0531
in ethanol, 309.53 K | 0.0566
in ethanol, 311.93 K | 0.0614
in ethanol, 314.52 K | 0.0658
in ethanol, 315.93 K | 0.0703
in ethanol, 318.07 K | 0.076
in ethanol, 319.8 K | 0.0816
in ethanol, 321.46 K | 0.0876
in ethanol, 323.45 K | 0.103
in ethanol, 325.68 K | 0.116
in ethanol, 327.32 K | 0.129
in ethanol, 329.34 K | 0.14
in ethanol, 330.43 K | 0.154
in ethanol, 332 K | 0.174
in ethanol, 333.9 K | 0.204
in ethanol, 335.9 K | 0.238
in ethanol, 337.76 K | 0.293
in ethanol, 339.76 K | 0.382
in n-butanol, 313.77 K | 0.113
in n-butanol, 315.17 K | 0.119
in n-butanol, 317.98 K | 0.139
in n-butanol, 320.74 K | 0.159
in n-butanol, 323.67 K | 0.183
in n-butanol, 325.6 K | 0.205
in n-butanol, 327.76 K | 0.228
in n-butanol, 329.03 K | 0.252
in n-butanol, 331.8 K | 0.294
in n-butanol, 333.65 K | 0.333
in n-butanol, 335.1 K | 0.375
in n-butanol, 337 K | 0.436
in n-butanol, 338.15 K | 0.477
in n-butanol, 339.63 K | 0.526
in n-butanol, 340.65 K | 0.567
in n-butanol, 342.04 K | 0.62
in n-butanol, 342.8 K | 0.66
in n-heptane, 290.25 K | 0.0595
in n-heptane, 294.3 K | 0.0705
in n-heptane, 297.85 K | 0.0798
in n-heptane, 301.37 K | 0.0889
in n-heptane, 303.04 K | 0.0978
in n-heptane, 305.3 K | 0.107
in n-heptane, 307.53 K | 0.115
in n-heptane, 309.63 K | 0.123
in n-heptane, 311.2 K | 0.133
in n-heptane, 312.6 K | 0.141
in n-heptane, 314.13 K | 0.15
in n-heptane, 315.15 K | 0.158
in n-heptane, 316.63 K | 0.168
in n-heptane, 317.65 K | 0.177
in n-heptane, 321.33 K | 0.209
in n-heptane, 324.25 K | 0.23
in n-heptane, 326.98 K | 0.265
in n-heptane, 329.45 K | 0.304
in n-heptane, 330.26 K | 0.329
in n-heptane, 331.5 K | 0.35
in n-heptane, 333.75 K | 0.389
in toluene, 291.35 K | 0.239
in toluene, 301.45 K | 0.31
in toluene, 304.54 K | 0.34
in toluene, 308.53 K | 0.374
in toluene, 311.93 K | 0.406
in toluene, 315.25 K | 0.439
in toluene, 318.55 K | 0.472
in toluene, 322.23 K | 0.503
in toluene, 324.37 K | 0.537
in toluene, 327.55 K | 0.589
in toluene, 331.35 K | 0.637
in toluene, 334.65 K | 0.677
